Target: melatonin receptor
Experiment: Action of inhibiting 2-[^125 I]iodomelatonin binding
Design: species or system chicken (white leghorn)
Conditions: forebrain membranes of 7-day-old chickens; 80 pM 2-[^125 I]iodomelatonin; 90 minutes at 25° C., pH 7.7; read-out: IC50, inhibition of 2-[^125 I]iodomelatonin binding
Description: The forebrains of 7-day-old chickens (white leghorn) were homogenized with ice-cooled assay-buffer (50 mM Tris-HCl, pH 7.7, at 25° C.) and centrifuged at 44,000×g for 10 minutes to give pellet. The pellet was washed once with the same buffer solution, which was further homogenized with the assay-buffer to make a protein concentration of 0.3-0.4 mg/mL. The homogenate was used as a membrane sample. In a test tube, the membrane sample and a ligand (80 pM 2-[^125 I]iodomelatonin,ca. 100,000 dpm) were mixed to make the whole volume 0.5 mL. The mixture was incubated for 90 minutes at 25° C., to which was added 3 mL of ice-cooled assay buffer, immediately followed vacuum filtration on Whatman GF/B which was further washed twice with 3 mL each of ice-cold assay buffer. The radioactivity on the filter was determined by means of gamma-counter. Specific binding was calculated by subtracting the non-specific binding which was determined in the presence of 10 μM melatonin. The 50% inhibiting concentration (IC50) was determined by the log-probit analysis.

IC50: 0.087 nM
Structure (SMILES): COc1ccc2c(c1)C(CCNC(=O)C(F)(F)F)=C(c1ccccc1)C2 [Working Example 1, 2,2,2-Trifluoro-N-[2-(5-methoxy-2-phenyl-1H-inden-3-yl)ethyl]acetamide]
